Consider one compound from patent US12637469B2, “1H-pyrazole derivative and application thereof as dual target inhibitor of Syk and VEGFR2” (Ocumension Therapeutics (Suzhou) Co., Ltd., priority 2020, dated 2026).

As a reminder, the IC50 is the concentration needed to halve the response being measured.

What all share (format): biochemical
One experiment deals with T1, SAPK2b(h) (Homo sapiens, UniProt Q15759).
T1 construct: purchased Eurofins (KinaseProfiler platform)
Put plainly: Eurofins KinaseProfiler off-target kinase inhibition. As for the experimental part:
(§1) In order to investigate the specificity of the inhibition of the target by the compound, in this study, the activity and selectivity of test compound 1 on the off-target kinases in related pathways were tested on the Eurofins kinaseProfiler™ platform, and compound screening and analysis were conducted using IC50 value as the indicator.
(§2) Compound 1 was detected for each selected kinase using the standard Eurofins Kinase Profiler™ protocol, which followed the relevant standard operating procedures. The IC50 values of the inhibitory activity of the test compound 1 on 67 kinases including Abl(h), B-Raf(h), BTK(h) and JAK(h) were analyzed.

The target in another experiment is T2, Lck(h)activated (Homo sapiens, UniProt P06239).
T2 construct: purchased Eurofins (KinaseProfiler service)
The description is as above. As for the experimental part: as §1, §2

The next experiment concerns the target T3, MAPKAP-K2(h) (Homo sapiens, UniProt P49137).
T3 construct: purchased Eurofins (KinaseProfiler service)
The experiment is described as above. As for the experimental part:
as §1, §2

The next experiment has as its target T4, Txk(h) (Homo sapiens, UniProt P42681).
T4 construct: purchased Eurofins (KinaseProfiler platform)
The experiment is described as above. As for the experimental part:
as §1, §2

In a further experiment the target is T5, FGFR3(h) (Homo sapiens, UniProt P22607).
T5 construct: purchased Eurofins (KinaseProfiler platform)
Described as above. How it is done: as §1, §2

The target in the next experiment is T6, PDGFRα(h) (Homo sapiens, UniProt P16234).
T6 construct: purchased Eurofins (KinaseProfiler service)
T6 sequence (P16234 24-1089): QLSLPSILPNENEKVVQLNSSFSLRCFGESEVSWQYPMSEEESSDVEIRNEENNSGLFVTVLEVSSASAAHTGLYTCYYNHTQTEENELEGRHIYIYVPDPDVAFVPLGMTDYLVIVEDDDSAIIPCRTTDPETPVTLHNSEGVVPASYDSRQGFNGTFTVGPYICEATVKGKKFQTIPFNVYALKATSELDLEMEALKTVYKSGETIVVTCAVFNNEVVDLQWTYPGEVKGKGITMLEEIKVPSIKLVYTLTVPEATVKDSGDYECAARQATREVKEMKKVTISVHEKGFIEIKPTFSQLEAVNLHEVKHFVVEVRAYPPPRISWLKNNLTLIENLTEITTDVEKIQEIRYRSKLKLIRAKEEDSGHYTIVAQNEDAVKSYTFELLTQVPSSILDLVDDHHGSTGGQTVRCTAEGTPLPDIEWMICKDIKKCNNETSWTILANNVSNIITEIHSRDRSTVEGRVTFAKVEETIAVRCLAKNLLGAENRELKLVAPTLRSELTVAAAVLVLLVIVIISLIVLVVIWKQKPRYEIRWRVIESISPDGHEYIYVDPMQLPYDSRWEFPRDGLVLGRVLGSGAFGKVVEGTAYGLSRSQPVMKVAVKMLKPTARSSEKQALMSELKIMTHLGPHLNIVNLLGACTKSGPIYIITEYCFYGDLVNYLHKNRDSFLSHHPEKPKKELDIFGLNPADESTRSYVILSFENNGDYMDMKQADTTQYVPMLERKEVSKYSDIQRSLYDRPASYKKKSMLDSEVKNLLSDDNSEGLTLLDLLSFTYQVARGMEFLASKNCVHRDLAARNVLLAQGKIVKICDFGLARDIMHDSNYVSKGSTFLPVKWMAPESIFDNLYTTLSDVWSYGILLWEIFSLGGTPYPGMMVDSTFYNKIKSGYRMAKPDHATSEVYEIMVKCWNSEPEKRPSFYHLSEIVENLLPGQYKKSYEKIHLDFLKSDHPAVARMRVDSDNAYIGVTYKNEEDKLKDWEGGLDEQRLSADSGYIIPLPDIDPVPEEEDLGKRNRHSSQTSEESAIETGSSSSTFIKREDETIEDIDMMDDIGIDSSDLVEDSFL
The description is as above. How it is done:
as §1, §2

The target of the next experiment is T7, Ret(h) (Homo sapiens, UniProt P07949).
T7 construct: purchased Eurofins (KinaseProfiler platform)
The description is as above. As for the experimental part: as §1, §2

For the next experiment, the target named is T8, SAPK4(h) (Homo sapiens, UniProt O15264).
T8 construct: purchased Eurofins (KinaseProfiler platform)
The description is as above. How it is done:
as §1, §2

Another experiment deals with T9, JAK3(h) (Homo sapiens, UniProt P52333).
T9 construct: purchased Eurofins (KinaseProfiler service)
T9 sequence (P52333 whole entry): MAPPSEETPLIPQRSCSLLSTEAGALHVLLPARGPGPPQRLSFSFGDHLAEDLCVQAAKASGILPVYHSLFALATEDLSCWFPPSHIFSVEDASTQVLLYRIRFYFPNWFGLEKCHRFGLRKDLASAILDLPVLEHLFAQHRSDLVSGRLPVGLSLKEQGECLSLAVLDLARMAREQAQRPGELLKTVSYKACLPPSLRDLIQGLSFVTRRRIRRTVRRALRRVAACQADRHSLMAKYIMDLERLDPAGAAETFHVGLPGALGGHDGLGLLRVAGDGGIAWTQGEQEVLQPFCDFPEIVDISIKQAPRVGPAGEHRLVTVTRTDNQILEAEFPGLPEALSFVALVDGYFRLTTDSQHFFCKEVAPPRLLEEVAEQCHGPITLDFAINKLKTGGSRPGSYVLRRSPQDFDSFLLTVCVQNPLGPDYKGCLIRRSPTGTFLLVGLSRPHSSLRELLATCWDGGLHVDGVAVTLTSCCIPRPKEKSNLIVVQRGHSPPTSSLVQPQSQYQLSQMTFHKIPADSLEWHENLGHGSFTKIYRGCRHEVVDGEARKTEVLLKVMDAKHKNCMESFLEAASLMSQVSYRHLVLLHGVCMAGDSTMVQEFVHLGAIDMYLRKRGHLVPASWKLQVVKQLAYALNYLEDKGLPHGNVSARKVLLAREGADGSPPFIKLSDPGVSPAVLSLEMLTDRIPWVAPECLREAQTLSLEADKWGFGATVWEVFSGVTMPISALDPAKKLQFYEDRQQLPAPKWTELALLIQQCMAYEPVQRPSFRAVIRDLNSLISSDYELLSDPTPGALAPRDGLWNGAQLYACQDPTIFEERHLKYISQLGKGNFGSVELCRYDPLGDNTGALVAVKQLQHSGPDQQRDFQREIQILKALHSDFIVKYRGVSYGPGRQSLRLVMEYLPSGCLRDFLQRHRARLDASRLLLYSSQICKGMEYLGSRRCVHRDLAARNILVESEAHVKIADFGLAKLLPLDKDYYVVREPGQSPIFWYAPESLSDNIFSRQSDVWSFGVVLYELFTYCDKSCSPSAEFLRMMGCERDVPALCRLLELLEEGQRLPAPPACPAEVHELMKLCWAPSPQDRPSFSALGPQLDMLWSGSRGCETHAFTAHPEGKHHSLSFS
The description is as above. How it is done:
as §1, §2

For a further experiment, the target named is T10, MSK1(h) (Homo sapiens, UniProt O75582).
T10 construct: purchased Eurofins (KinaseProfiler service)
T10 sequence (O75582 whole entry): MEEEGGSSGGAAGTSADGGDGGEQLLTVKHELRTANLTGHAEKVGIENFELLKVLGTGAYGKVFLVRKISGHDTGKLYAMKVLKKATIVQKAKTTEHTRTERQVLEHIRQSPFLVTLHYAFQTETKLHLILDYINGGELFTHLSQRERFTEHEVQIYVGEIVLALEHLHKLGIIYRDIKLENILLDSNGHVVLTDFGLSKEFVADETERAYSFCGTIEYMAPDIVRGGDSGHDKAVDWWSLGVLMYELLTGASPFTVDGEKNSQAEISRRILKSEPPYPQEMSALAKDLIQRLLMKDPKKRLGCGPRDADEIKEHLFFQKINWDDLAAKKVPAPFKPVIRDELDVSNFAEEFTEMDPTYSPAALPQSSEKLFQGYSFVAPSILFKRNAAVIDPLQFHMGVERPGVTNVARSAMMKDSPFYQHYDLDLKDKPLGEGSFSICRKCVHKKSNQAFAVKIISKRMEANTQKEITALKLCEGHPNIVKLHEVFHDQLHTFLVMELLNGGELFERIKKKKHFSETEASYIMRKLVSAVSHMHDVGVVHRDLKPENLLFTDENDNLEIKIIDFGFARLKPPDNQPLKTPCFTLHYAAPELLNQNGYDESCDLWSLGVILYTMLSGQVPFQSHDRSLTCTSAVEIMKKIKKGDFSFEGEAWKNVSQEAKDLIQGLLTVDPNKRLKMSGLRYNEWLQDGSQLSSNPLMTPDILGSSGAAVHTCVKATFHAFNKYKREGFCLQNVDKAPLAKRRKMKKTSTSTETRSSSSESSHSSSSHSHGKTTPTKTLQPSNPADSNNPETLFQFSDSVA
Described as above. As for the experimental part:
as §1, §2

In another experiment the target is T11, Fyn(h) (Homo sapiens, UniProt P06241).
T11 construct: purchased Eurofins (KinaseProfiler platform)
Described as above. As for the experimental part:
as §1, §2

For another experiment, the target named is T12, MEK1(h) (Homo sapiens, UniProt Q02750).
T12 construct: purchased Eurofins (KinaseProfiler service)
The experiment is described as above. As for the experimental part: as §1, §2

For the next experiment, the target named is T13, Lyn(h) (Homo sapiens, UniProt P07948).
T13 construct: purchased Eurofins (KinaseProfiler service)
T13 sequence (P07948 whole entry): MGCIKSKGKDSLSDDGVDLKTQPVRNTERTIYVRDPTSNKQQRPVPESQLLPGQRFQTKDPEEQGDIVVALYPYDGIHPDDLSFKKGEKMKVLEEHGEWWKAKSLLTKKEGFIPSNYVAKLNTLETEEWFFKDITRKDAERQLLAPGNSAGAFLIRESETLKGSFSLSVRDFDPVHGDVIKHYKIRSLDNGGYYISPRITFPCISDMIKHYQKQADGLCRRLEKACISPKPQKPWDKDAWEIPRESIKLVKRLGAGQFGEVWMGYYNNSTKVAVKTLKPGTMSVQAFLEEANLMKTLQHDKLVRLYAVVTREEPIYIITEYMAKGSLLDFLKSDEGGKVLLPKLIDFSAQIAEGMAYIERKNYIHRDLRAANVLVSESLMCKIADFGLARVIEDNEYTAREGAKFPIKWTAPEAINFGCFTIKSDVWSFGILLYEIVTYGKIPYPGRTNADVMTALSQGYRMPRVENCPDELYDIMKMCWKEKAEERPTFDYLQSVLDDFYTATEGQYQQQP
Described as above. How it is done:
as §1, §2

Another experiment deals with T14, CDK2/cyclinA(h) (Homo sapiens, UniProt P24941).
T14 construct: purchased Eurofins (KinaseProfiler platform)
The experiment is described as above. How it is done: as §1, §2

Experiment [1] concerns the target VEGFR2 kinase (KDR enzyme) (Homo sapiens, UniProt P35968). Put plainly: In vitro inhibitory effect on VEGFR2 kinase (ADP-Glo enzymatic experiment). The conditions noted are these: read-out: IC50 (nM) for inhibition of VEFGR2 enzyme. As for the experimental part: The VEGFR2 kinase assay kit is intended for measuring VEGFR2 kinase activity using Kinase-Glo®MAX as a detection reagent, and compound screening and analysis were conducted using the IC50 value of the compound as an indicator.
The ADP-GLO™ Kinase Assay is an analytical reaction in which a luminescent kinase is used to determine the adenosine diphosphate formed by the kinase; ADP is converted to ATP, i.e., an optical signal is generated by Ultra-Glo™ luciferase. The optical signal is positively correlated with ADP quantity and kinase activity. This assay is ideal for determining the activity of the compound, making it ideal for primary screening and kinase selectivity analysis. The ADP-Glo™ Kinase Assay can be used to monitor the activity of virtually any ADP-producing enzyme such as a kinase orATPase: • 1) The enzyme, substrate, ATP and inhibitor were diluted in a kinase buffer; • 2) 384-well plate: 1 μL of inhibitor or (5% dimethyl sulfoxide solution), 2 μL of KDR enzyme, 2 μL of matrix/ATP mixture; • 3) the mixture was incubated at room temperature for 60 minutes; • 4) 5 μL of ADP-GLO™ reagent was added; • 5) the mixture was incubated for 40 minutes at room temperature; • 6) 10 μL of kinase detection reagent was added; • 7) the mixture was incubated at room temperature for 30 minutes; • 8) the luminescence was recorded (integration time 0.5-1 sec). The data was shown in relative light units (rlu), which was directly related to the amount of […]. There was correlation between the percent of the conversion from ATP to ADP for each kinase amount and the corresponding signal-to-background ratio. • 9) Data analysis: (a) KDR enzyme was titrated with 50 μM of ATP, and the luminescent signal produced by KDR enzyme was shown; (b) staurosporine dose response was generated with 1.5 ng of KDR to determine the IC50 value of the inhibitor.
(In general: ADP-Glo turns the ADP formed in a reaction into a luminescent signal.)

Each structure is given as a SMILES string.

Chain of VEGFR2 kinase (KDR enzyme) (P35968 20-1356, species assumed): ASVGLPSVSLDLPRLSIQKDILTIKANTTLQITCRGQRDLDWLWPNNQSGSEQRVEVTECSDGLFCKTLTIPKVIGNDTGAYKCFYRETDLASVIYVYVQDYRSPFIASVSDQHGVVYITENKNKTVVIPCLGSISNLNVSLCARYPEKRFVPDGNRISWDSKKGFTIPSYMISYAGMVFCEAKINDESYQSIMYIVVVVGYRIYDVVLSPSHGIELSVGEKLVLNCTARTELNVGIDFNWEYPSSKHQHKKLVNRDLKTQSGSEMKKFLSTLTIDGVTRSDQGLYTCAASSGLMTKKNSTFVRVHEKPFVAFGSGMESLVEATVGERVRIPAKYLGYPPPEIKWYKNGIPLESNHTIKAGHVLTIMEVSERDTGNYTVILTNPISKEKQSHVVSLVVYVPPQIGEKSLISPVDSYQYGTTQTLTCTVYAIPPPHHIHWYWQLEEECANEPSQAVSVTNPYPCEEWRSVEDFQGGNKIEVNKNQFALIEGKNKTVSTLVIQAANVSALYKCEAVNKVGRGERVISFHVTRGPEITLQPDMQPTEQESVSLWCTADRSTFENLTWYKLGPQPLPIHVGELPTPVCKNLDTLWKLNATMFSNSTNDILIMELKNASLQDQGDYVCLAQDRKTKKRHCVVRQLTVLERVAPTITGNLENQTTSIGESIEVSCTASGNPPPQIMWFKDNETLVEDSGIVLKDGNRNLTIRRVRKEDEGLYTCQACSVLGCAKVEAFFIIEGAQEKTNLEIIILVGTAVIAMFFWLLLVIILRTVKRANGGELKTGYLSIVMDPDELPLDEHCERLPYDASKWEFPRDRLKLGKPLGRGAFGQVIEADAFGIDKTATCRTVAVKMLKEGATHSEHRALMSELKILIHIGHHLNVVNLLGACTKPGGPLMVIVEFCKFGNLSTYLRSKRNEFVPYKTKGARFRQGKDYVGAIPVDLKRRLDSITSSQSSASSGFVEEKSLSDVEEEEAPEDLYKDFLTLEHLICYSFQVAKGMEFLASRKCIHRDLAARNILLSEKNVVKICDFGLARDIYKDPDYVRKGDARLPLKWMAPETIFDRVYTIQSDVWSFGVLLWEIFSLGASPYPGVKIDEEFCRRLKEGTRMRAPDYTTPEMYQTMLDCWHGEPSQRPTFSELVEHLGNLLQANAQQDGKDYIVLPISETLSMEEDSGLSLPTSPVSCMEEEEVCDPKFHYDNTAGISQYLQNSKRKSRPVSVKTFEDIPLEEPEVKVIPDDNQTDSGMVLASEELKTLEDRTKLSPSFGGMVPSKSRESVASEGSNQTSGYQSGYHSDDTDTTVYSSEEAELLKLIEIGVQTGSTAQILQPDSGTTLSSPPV

As for `c1cn2c(n1)c(Nc1ccc(N3CCOCC3)cc1)nc1ccc(-c3cn[nH]c3)cc12` [Compound 1], the half-maximal inhibitory concentration (IC50) on SAPK2b(h) is over 10000 nM; against Lck(h)activated, 1310 nM; at MAPKAP-K2(h), over 10000 nM; against Txk(h), 227 nM; against FGFR3(h) it was over 10000 nM; on PDGFRα(h), 2700 nM. Also, the IC50 was 756 nM on Ret(h); over 10000 nM against SAPK4(h); 550 nM at JAK3(h); over 10000 nM against MSK1(h); 373 nM against Fyn(h); over 10000 nM at MEK1(h). Besides, the IC50 against Lyn(h) was 934 nM; against CDK2/cyclinA(h) it was over 10000 nM; in experiment [1], 23 nM.
